Results: paper PMC9934367, “Functional impact of subunit composition and compensation on Drosophila melanogaster nicotinic receptors–targets of neonicotinoids” (PLOS Genetics, 2023)

System: D. melanogaster nAChRs
Assay: Comparison of agonist activity between nAChRs expressed in X. laevis oocytes (one-way ANOVA, Kruskal-Wallis)
Assay type: cell-based
Protocol: We minimised the use of X. laevis according to the UK Animals (Scientific Procedures) Act, 1986. […] Oocytes were defolliculated after collagenase treatment in Ca^2+-free standard oocyte saline (Ca^2+-free SOS). cRNAs of the nAChR subunits and co-factors mixed at a concentration of 0.1 mg/mL was injected into oocytes at a volume of 50 nL. Then the oocytes were incubated in the incubation medium (SOS supplemented with sodium pyruvate (Nacalai Tesque, #13058–12), penicillin-streptomycin (MilliporeSigma, #P4333), gentamycin (Nacalai Tesque, #16672–04), and 4% horse serum (Thermo Fisher Scientific, #26050–070) for 3−4 days prior to electrophysiology.
Each defolliculated X. laevis oocyte was secured in a Perspex recording chamber and perfused with the standard oocyte saline (SOS) containing 0.5 μM atropine (SOSA) at a flow rate of 7−10 mL/min [48]. Two glass electrodes filled with 2 M KCl were impaled into each oocyte and the membrane potential was clamped at -100 mV. […] The peak amplitude of the response was measured and analysed by pCLAMP (Molecular Devices, USA).
Y=Imax/1+10^(logEC50‐X)nH
Where Y is the normalised response, X is log[ligand (M)], EC50 is the half maximal concentration (M), Imax is the maximum normalised response and nH is the Hill coefficient.
Prism software was employed for the statistical analyses. […] One-way ANOVA was used to analyse the differences of the ligand agonist activity in terms of pEC50 on the various nAChRs expressed in X. laevis as well as data obtained with D. melanogaster larvae and adults.

[1] = Dα1/Dβ1/Dβ2 vs. Dα1/Dα3/Dβ1/Dβ2
[2] = Dα1/Dβ1/Dβ2 vs. Dα2/Dα3/Dβ1/Dβ2
[3] = Dα1/Dβ1 vs. Dα1/Dα2/Dα3/Dβ1/Dβ2
[4] = Dα2/Dα3/Dβ1/Dβ2 vs. Dα1/Dα2/Dα3/Dβ1/Dβ2
[5] = Dα2/Dα3/Dβ1 vs. Dα1/Dα2/Dα3/Dβ1
[6] = Dα2/Dα3/Dβ1 vs. Dα1/Dα2/Dα3/Dβ1/Dβ2
[7] = Dα2/Dα3/Dβ1 vs. Dα1/Dα2/Dβ1/Dβ2
[8] = Dα2/Dα3/Dβ1 vs. Dα1/Dα3/Dβ1/Dβ2
[9] = Dα2/Dα3/Dβ1 vs. Dα2/Dα3/Dβ1/Dβ2
[10] = Dα3/Dβ1/Dβ2 vs. Dα1/Dα2/Dα3/Dβ1/Dβ2
[11] = Dα3/Dβ1/Dβ2 vs. Dα1/Dα2/Dβ1/Dβ2
[12] = Dα3/Dβ1/Dβ2 vs. Dα1/Dα3/Dβ1/Dβ2
[13] = Dα3/Dβ1/Dβ2 vs. Dα2/Dα3/Dβ1/Dβ2
[14] = Dα3/Dβ1 vs. Dα1/Dα2/Dα3/Dβ1/Dβ2

CN/C(=N\[N+](=O)[O-])NCc1cnc(Cl)s1 [Clothianidin, clothianidin]
Difference of Imax values, nAChRs compared [1]: -0.324 | Difference of pEC50 values, nAChRs compared [1]: -0.76 | Difference of Imax values, nAChRs compared [2]: -0.274 | Difference of pEC50 values, nAChRs compared [2]: -0.65 | Difference of Imax values, nAChRs compared (Dα1/Dβ1/Dβ2 vs. Dα3/Dβ1/Dβ2): -0.132 | Difference of pEC50 values, nAChRs compared (Dα1/Dβ1/Dβ2 vs. Dα3/Dβ1/Dβ2): -0.82 | Difference of Imax values, nAChRs compared (Dα1/Dβ1 vs. Dα1/Dα2/Dα3/Dβ1): -0.309 | Difference of pEC50 values, nAChRs compared (Dα1/Dβ1 vs. Dα1/Dα2/Dα3/Dβ1): 0.58 | Difference of Imax values, nAChRs compared [3]: -0.304 | Difference of pEC50 values, nAChRs compared [3]: 0.54 | Difference of Imax values, nAChRs compared (Dα1/Dβ1 vs. Dα1/Dα2/Dβ1): -0.191 | Difference of pEC50 values, nAChRs compared (Dα1/Dβ1 vs. Dα1/Dα2/Dβ1): 2.06 | Difference of Imax values, nAChRs compared (Dα1/Dβ1 vs. Dα1/Dα2/Dβ1/Dβ2): -0.292 | Difference of pEC50 values, nAChRs compared (Dα1/Dβ1 vs. Dα1/Dα2/Dβ1/Dβ2): 0.82 | Difference of Imax values, nAChRs compared (Dα1/Dβ1 vs. Dα1/Dα3/Dβ1): -0.119 | Difference of pEC50 values, nAChRs compared (Dα1/Dβ1 vs. Dα1/Dα3/Dβ1): -0.07 | Difference of Imax values, nAChRs compared (Dα1/Dβ1 vs. Dα1/Dα3/Dβ1/Dβ2): -0.176 | Difference of pEC50 values, nAChRs compared (Dα1/Dβ1 vs. Dα1/Dα3/Dβ1/Dβ2): -0.27 | Difference of Imax values, nAChRs compared (Dα1/Dβ1 vs. Dα1/Dβ1/Dβ2): 0.148 | Difference of pEC50 values, nAChRs compared (Dα1/Dβ1 vs. Dα1/Dβ1/Dβ2): 0.49 | Difference of Imax values, nAChRs compared (Dα1/Dβ1 vs. Dα2/Dα3/Dβ1): -0.374 | Difference of pEC50 values, nAChRs compared (Dα1/Dβ1 vs. Dα2/Dα3/Dβ1): 0.32 | Difference of Imax values, nAChRs compared (Dα1/Dβ1 vs. Dα2/Dα3/Dβ1/Dβ2): -0.126 | Difference of pEC50 values, nAChRs compared (Dα1/Dβ1 vs. Dα2/Dα3/Dβ1/Dβ2): -0.16 | Difference of Imax values, nAChRs compared (Dα1/Dβ1 vs. Dα3/Dβ1): -0.183 | Difference of pEC50 values, nAChRs compared (Dα1/Dβ1 vs. Dα3/Dβ1): -0.41 | Difference of Imax values, nAChRs compared (Dα1/Dβ1 vs. Dα3/Dβ1/Dβ2): 0.016 | Difference of pEC50 values, nAChRs compared (Dα1/Dβ1 vs. Dα3/Dβ1/Dβ2): -0.33 | Difference of Imax values, nAChRs compared [4]: -0.178 | Difference of pEC50 values, nAChRs compared [4]: 0.70 | Difference of Imax values, nAChRs compared [5]: 0.065 | Difference of pEC50 values, nAChRs compared [5]: 0.26 | Difference of Imax values, nAChRs compared [6]: 0.070 | Difference of pEC50 values, nAChRs compared [6]: 0.22 | Difference of Imax values, nAChRs compared [7]: 0.082 | Difference of pEC50 values, nAChRs compared [7]: 0.50 | Difference of Imax values, nAChRs compared [8]: 0.198 | Difference of pEC50 values, nAChRs compared [8]: -0.59 | Difference of Imax values, nAChRs compared (Dα2/Dα3/Dβ1 vs. Dα1/Dβ1/Dβ2): 0.522 | Difference of pEC50 values, nAChRs compared (Dα2/Dα3/Dβ1 vs. Dα1/Dβ1/Dβ2): 0.17 | Difference of Imax values, nAChRs compared [9]: 0.248 | Difference of pEC50 values, nAChRs compared [9]: -0.48 | Difference of Imax values, nAChRs compared (Dα2/Dα3/Dβ1 vs. Dα3/Dβ1/Dβ2): 0.390 | Difference of pEC50 values, nAChRs compared (Dα2/Dα3/Dβ1 vs. Dα3/Dβ1/Dβ2): -0.65 | Difference of Imax values, nAChRs compared [10]: -0.320 | Difference of pEC50 values, nAChRs compared [10]: 0.87 | Difference of Imax values, nAChRs compared [11]: -0.308 | Difference of pEC50 values, nAChRs compared [11]: 1.15 | Difference of Imax values, nAChRs compared [12]: -0.192 | Difference of pEC50 values, nAChRs compared [12]: 0.06 | Difference of Imax values, nAChRs compared [13]: -0.142 | Difference of pEC50 values, nAChRs compared [13]: 0.17 | Difference of Imax values, nAChRs compared (Dα3/Dβ1 vs. Dα1/Dα2/Dα3/Dβ1): -0.126 | Difference of pEC50 values, nAChRs compared (Dα3/Dβ1 vs. Dα1/Dα2/Dα3/Dβ1): 0.99 | Difference of Imax values, nAChRs compared [14]: -0.121 | Difference of pEC50 values, nAChRs compared [14]: 0.95 | Difference of Imax values, nAChRs compared (Dα3/Dβ1 vs. Dα1/Dα2/Dβ1): -0.008 | Difference of pEC50 values, nAChRs compared (Dα3/Dβ1 vs. Dα1/Dα2/Dβ1): 2.47 | Difference of Imax values, nAChRs compared (Dα3/Dβ1 vs. Dα1/Dα2/Dβ1/Dβ2): -0.109 | Difference of pEC50 values, nAChRs compared (Dα3/Dβ1 vs. Dα1/Dα2/Dβ1/Dβ2): 1.23 | Difference of Imax values, nAChRs compared (Dα3/Dβ1 vs. Dα1/Dα3/Dβ1): 0.064 | Difference of pEC50 values, nAChRs compared (Dα3/Dβ1 vs. Dα1/Dα3/Dβ1): 0.34 | Difference of Imax values, nAChRs compared (Dα3/Dβ1 vs. Dα1/Dα3/Dβ1/Dβ2): 0.007 | Difference of pEC50 values, nAChRs compared (Dα3/Dβ1 vs. Dα1/Dα3/Dβ1/Dβ2): 0.14 | Difference of Imax values, nAChRs compared (Dα3/Dβ1 vs. Dα1/Dβ1/Dβ2): 0.331 | Difference of pEC50 values, nAChRs compared (Dα3/Dβ1 vs. Dα1/Dβ1/Dβ2): 0.90 | Difference of Imax values, nAChRs compared (Dα3/Dβ1 vs. Dα2/Dα3/Dβ1): -0.191 | Difference of pEC50 values, nAChRs compared (Dα3/Dβ1 vs. Dα2/Dα3/Dβ1): 0.73 | Difference of Imax values, nAChRs compared (Dα3/Dβ1 vs. Dα2/Dα3/Dβ1/Dβ2): 0.057 | Difference of pEC50 values, nAChRs compared (Dα3/Dβ1 vs. Dα2/Dα3/Dβ1/Dβ2): 0.25 | Difference of Imax values, nAChRs compared (Dα3/Dβ1 vs. Dα3/Dβ1/Dβ2): 0.199 | Difference of pEC50 values, nAChRs compared (Dα3/Dβ1 vs. Dα3/Dβ1/Dβ2): 0.08
